“Also recorded” adds a separate entry of the source. Where two headings read alike, the source gives them in different places.
Tests used:
[1] = Tissue and plasma concentrations after single oral doses; format: in vivo; conditions: mice
Experimental: FIG. 6 Tissue and plasma remodilin concentrations after single oral doses (filled circles 50 mg/kg; open circles-10 mg/kg). […] The greater oral bioavailability, longer half-life, and inter-tissue variation of remodilin 83 concentration are readily evident. Mean+SEM shown; n=3/condition.
(§1) The in vivo bioavailability, plasma half-life, Cmax, and area under the curve (AUC) were determined after administration of single 10 mg/kg doses of remodilins 39 and 83 to mice (Table 1). Selected tissue concentrations of remodilins 39 and 83 after single oral doses of 10 or 50 mg/kg (FIG. 6). The PK properties of these remodilins differ substantially.
(§2) PK was re-evaluated after 14 days of intraperitoneal (IP) or oral BID dosing. […] Plasma levels after single or 15 consecutive once-daily IP 10 mg/kg doses of remodilin 39 were examined (FIG. 8). The plasma concentration of 10 μM remodilin 39 corresponds to 5314 ng/mL.

[2] = tested on: HIF1α; test: Hypoxia-induced HIF1α accumulation in HEK293T cells (Western blot); format: cell-based; conditions: 6 hrs steady hypoxia; 3 or 10 μM
Description: FIG. 14A-14B Remodilins' effects on hypoxia-induced accumulation of HIF1α. […] FIG. 14B HIF1α was absent in cells ex-posed to 6 hrs normoxia (N).
OSA is a chronic, morbid disease affecting about 10% of the adult population, in which frequent episodes of upper airway collapse obstruct inspiratory airflow and cause IH. These episodes of IH disrupt sleep but perhaps more importantly accelerate multiple cardiometabolic abnormalities, including systemic hypertension, cardiovascular disease, stroke, and abnormal glucose metabolism. Therefore, remodilins were examined for their ability on inhibit hypoxia-induced accumulation of HIF1α, a transcription factor that mediates many of the adverse responses to IH.

[3] = tested on: ERK1/2; test: TGFβ-induced ERK1/2 phosphorylation in fibroblasts; format: cell-based; conditions: human fibroblasts
Description: (§3) FIG. 12A-12B Remodilins inhibit accumulation of hypoxia-inducible factor-1 alpha (HIF1α) protein. FIG. 12A Effect of remodilin 83 on TGFβ-induced phosphorylation of AKT and ERK1/2 and TGFβ-induced HIF1α accumulation in human fibroblasts. FIG. 12B Both remodilins 39 and 83 inhibited HIF1α accumulation in HEK293 cells exposed to 6 hrs of hypoxia (1% 02).
(§4) The influence of remodilin 83 on HIF-1α accumulation in TGFβ-treated fibroblasts was examined. […] Similarly, both remodilins 39 and 83 inhibited HIF1α accumulation in HEK293 cells exposed to 6 hrs of hypoxia (1% O2; FIG. 12B). […] N—normoxia; H—hypoxia.

[4] = tested on: MDA-MB-231 cells; test: Scratch wound healing migration assay; format: cell-based, human; conditions: dose-dependent; 1, 3, 10 uM; n=8 wells/condition
Experimental: Mean+SD shown; n=8 wells/condition. P<0.0001 for 1, 3, & 10 uM remodilin 39 vs DMSO (control) by 2-way ANOVA/Dunnett's.
(§5) Remodilins 39 and 83 each slowed the invasion of triple negative MDA-MB-231 human breast cancer cells from spheroids into a surrounding collagen gel (FIG. 3), and also slowed the serum-directed invasion MDA-MB-231-derived BM1 cells through Matrigel-coated transwells (FIG. 4). Remodilins 39 and 83 also slowed the migration of MDA-MB-231 cells in a scratch wound healing assay (FIG. 5).

[5] = tested on: A549 lung adenocarcinoma cells; test: Oxygen consumption rate and extracellular acidification rate; format: cell-based; conditions: treated at time=30 min
Experimental: FIG. 13A-13B Effect of remodilin 83 on oxygen consumption rate (OCR) and extracellular acidification rate (ECAR). FIG. 13A A549 cells were treated with remodilin 83 (open circles) or its vehicle (filled circles) at time=30 min, and oxygen consumption rate (OCR) was continuously measured over time. FIG. 13B A549 cells were treated with remodilin 83 (open circles) or its vehicle (filled circles) at time=30 min, and extracellular acidification rate (ECAR) was measured continuously over time. Cells were sequentially treated with oligomycin (ATP synthase inhibitor), FCCP (uncoupler) and antimycin A/rotenone (A+R) (complex III and I inhibitor).
A549 cells were treated with remodilin 83 (open circles) or its vehicle (filled circles) at time=30 min, and oxygen consumption rate (OCR) and extracellular acidification rate (ECAR) were measured continuously over time. Cells were sequentially treated with oligomycin (ATP synthase inhibitor), FCCP (uncoupler) and antimycin A/rotenone (A+R) (complex III and I inhibitor).

[6] = In vivo PK and oral bioavailability, single dose; conditions: mouse, plasma, wild-type mice, 10 mg/kg single dose
Experimental: as §1

[7] = tested on: AKT; test: TGFβ-induced AKT phosphorylation in fibroblasts; format: cell-based; conditions: human fibroblasts
Description: as §3, §4

[8] = tested on: MDA-MB-231 cells; test: Alamar blue assay (growth inhibition, cytotoxicity); format: cell-based, human; conditions: concentrations to at least 10 uM
[9] = Tissue concentrations after 14 d BID dosing (IP or PO); format: in vivo; conditions: for concentration at 14 days: liver, lung, intraperitoneal
Experimental: Mean+SEM shown; n=3/condition. Dotted lines show concentration corresponding to 10 μM.
as §2
(§6) In the experiments corresponding to FIG. 7, remodilin 83 was dissolved in 20% Solutol in PBS.

[10] = tested on: MDA-MB-231 cells; test: Spheroid invasion into collagen gels; format: cell-based, human; conditions: 10 µM remodilin; 48 hrs; collagen 2 mg/mL; DMEM 0.5% FBS; vs 0.1% DMSO
Experimental: FIG. 3 MDA-MB-231 cells were grown into spheroids, then allowed to migrate into collagen gels in DMEM containing 0.5% FBS and remodilin (10 µM remodilin 39 [top row] or remodilin 83 [bottom row]) or diluent (0.1% DMSO) for 48 hrs (representative 48 hr images shown).
as §5

[11] = tested on: HIF1α; test: TGFβ-induced HIF1α accumulation in fibroblasts; format: cell-based, human; conditions: 48 hrs TGFβ treatment
Description: as §3, §4

[12] = tested on: human lung-derived fibroblasts; test: TGFβ-induced myofibroblast transformation (ACTA2, FN1 protein expression); format: cell-based; conditions: 1 ng/mL TGFβ1; 0, 1, 3, or 10 μM remodilin for 2 d; dose-dependent
Experimental: FIG. 1 Remodilins inhibit myofibroblast transformation (MFT). Serum deprived human lung-derived fibroblasts were treated with 1 ng/mL TGFβ1 (or not, left lane) and 0, 1, 3, or 10 μM remodilin for 2 d. Four remodilins each inhibited smooth muscle α-actin (ACTA2) or fibronectin-1 (FN1) protein expression (markers of MFT).

[13] = Lipophilicity and dissolution in vehicles; format: physicochemical
Experimental: as §6

[14] = tested on: HIF1α; test: Hypoxia-induced HIF1α accumulation in HEK293 cells; format: cell-based; conditions: 6 hrs steady hypoxia (1% oxygen); 3 μM or 10 µM
Description: as §3, §4

[15] = tested on: Sprague Dawley rats; test: Intermittent hypoxia (IH)-induced systemic hypertension; format: in vivo
Experimental: FIG. 15A-15B Remodilin's effect on hypertension and weight. […] N=2/group; DO-Day 0 (prior to IH), D11-Day 11.
Remodilins were tested for their ability to inhibit the systemic hypertension induced in rats subjected to IH in vivo.

[16] = tested on: MDA-MB-231-derived BM1 cells; test: 10% FBS-directed invasion through Matrigel-coated transwell membrane; format: cell-based, human; conditions: dose-dependent; n=3/condition
Description: FIG. 4 Remodilins 39 and 83 inhibited 10% FBS-directed invasion migration of MDA-MB-231-derived BM1 cells through a Matrigel-coated transwell mem-brane, in a dose-dependent fashion. Mean+SEM shown; n=3/condition. **P<0.01; ***P<0.001; ****P<0.0001.
as §5

For CC1CN(S(=O)(=O)c2ccc(NC(=O)c3ccc(Br)c(I)c3)cc2)CCN1 (centres unmarked) [Remodilin 83, 4-Bromo-3-iodo-N-(4-((3-methylpiperazin-1-yl)sulfonyl)phenyl)benzamide], the “maintenance of tissue or plasma levels above 10 μM throughout the day” value ([1]; single oral doses) was “did not maintain tissue or plasma levels above 10 μM throughout the day”, the tissue distribution ([1]; single oral doses of 10 or 50 mg/kg (FIG. 6)) was “highly preferentially distributed to the lung” and the “HIF1α accumulation in HEK293T cells exposed to hypoxia” value [2] was “inhibit the accumulation of HIF1α”. For the same molecule, the “TGFβ-induced ERK1/2 phosphorylation” value [3] was “not TGFβ-induced ERK1/2 phosphorylation”, the “migration of confluent MDA-MB-231 cells into circular scratch wound” value [4] was “inhibited migration” and the “extracellular acidification rate (ECAR), marker of glycolysis” value [5] was “decreases both mitochondrial respiration and glycolysis”. The “oxygen consumption rate (OCR), mitochondrial respiration” value [5] was “decreases both mitochondrial respiration and glycolysis”, the bioavailability ([6]; po) was 22% and the AUC [6] was 1300 ng·h/mL. The Cmax [6] was 0.38 µM, the half-life [6] was 8.4 h and the “TGFβ-induced AKT phosphorylation” value [7] was “inhibited TGFβ-induced AKT phosphorylation”. For the same molecule, the “growth inhibition or cytotoxicity by Alamar blue assay” value [8] was “Neither remodilin is growth-inhibitory or cytotoxic”, the “variation of tissue concentrations over the 12-hour dosing period, IP” value ([9]; after 14 d BID dosing, given IP) was “relatively steady within each tissue” and the “variation of tissue concentrations over the 12-hour dosing period, PO” value ([9]; after 14 d BID dosing, given PO) was “greater variation over time”. For the same molecule, the Brain levels ([9]; after 14 days BID dosing) was “low”, the concentration at 14 days ([9]; female, Balb/c, mouse, heart, kidney, 40 mg/kg BID IP, 14 days, read-out: levels in liver, heart, lung, and kidney) was ~10 µM and the “mortality or gross clinical evidence of toxicity” value ([9]; mouse, in vivo) was “no mortality or gross clinical evidence of toxicity”. For the same molecule, the concentration at 14 days ([9]; mouse, 14-day 40 mg/kg BID IP in 20% Solutol, female Balb/c mice, read-out: liver and lung concentrations) was < 10 µM, the “invasion of MDA-MB-231 cells from spheroids into collagen gels” value [10] was “inhibited invasion” and the “TGFβ-induced HIF1α accumulation in human fibroblasts” value [11] was “this response was absent”. The “TGFβ-stimulated transformation of human lung-derived fibroblasts to myofibroblast phenotype (ACTA2 or FN1 protein expression)” value [12] was “blunt TGFβ-stimulated transformation”, the “lipophilicity / lipid solubility” value [13] was “lipophilic; also recorded: highly lipid soluble” and the “dissolution in 20% Solutol or DMSO” value ([13]; 20% Solutol or DMSO) was “readily dissolved”. The “HIF1α accumulation in HEK293 cells exposed to hypoxia” value [14] was “blunted HIF1α accumulation substantially”, the “systemic hypertension induced by 10 days of IH (8 hrs/day)” value ([15]; 20 mg/kg BID IP, N=2/group) was “blocks the systemic hypertension” and the “health as judged by clinical observation or weight gain” value ([15]; D0 to D11) was “no obvious effect on health”. The “blood pressure in rats unexposed to IH” value ([15]; N=2/group) was “little effect on blood pressure” and the “10% FBS-directed invasion migration of BM1 cells through Matrigel-coated transwell membrane” value [16] was “inhibited”.

Reference: US20240415851A1, “REMODILINS TO PREVENT OR TREAT CANCER METASTASIS, GLAUCOMA, AND HYPOXIA” (The University of Chicago, priority 2019, published 2024)
